The text below walks through data of patent US8507490B2, “Tetrasubstituted pyridazine hedgehog pathway antagonists” (Eli Lilly and Company, priority 2008, dated 2013).

SMILES strings stand for the structures. Counter-ions that a name gives are not always drawn.

The assay concerns Gli1 transcript in Daoy cells (Shh signaling). The assay is described as follows: Functional assay for measuring the inhibition of Gli1 in Daoy cells (bDNA assay of Gli1 transcript after Shh-conditioned media stimulation). Type of assay: cell-based. The conditions noted are these: Homo sapiens; Daoy cells stimulated with Shh-CM, 24 hours incubation with compound, Gli1 bDNA luminescence. The protocol:
Biological activity is determined using a functional assay in Daoy neuronal cancer cells and measures levels of Gli1 ribonucleic acid via a bDNA (branched deoxyribonucleic acid) assay system (Panomics, Inc., Fremont, Calif.). Gli was originally discovered in a Glioblastoma cell line and encodes a zinc finger protein that is activated by Shh signaling. The maximum response is obtained by inducing Gli1 transcription in the Daoy cells with conditioned medium (human embryonic kidney, HEK-293 cells stably expressing recombinant Shh) for 24 hours and then measuring the amount of stimulated Gli1 transcript. […]
The bDNA assay system utilizes the technology of branched-chain DNA to allow amplification of a target ribonucleic acid (transcript). […] The addition of a chemilumigenic substrate during the amplification step allows for detection using luminescence. […]
Daoy cells are grown to confluency in tissue culture T225-flasks in Daoy growth media containing Minimum Essential Medium (MEM) plus 10% Fetal Bovine Serum (FBS) with […] non-essential amino acids and 1 mM sodium pyruvate. The cells are removed from the T225-flasks using trypsin ethylenediaminetetraacetic acid (EDTA), centrifuged, resuspended in media, and then counted. […]

Regarding `Cc1c(-c2ccc(F)cc2)nnc(N2CCC(N(C)C(=O)[C@@H]3CCCCN3)CC2)c1C` [Example 34, (S)-N-(1-(6-(4-Fluorophenyl)-4,5-dimethylpyridazin-3-yl)piperidin-4-yl)-N-methylpiperidine-2-carboxamide dihydrochloride], the IC50 – broadly, the concentration that gives 50% inhibition – was roughly 1.22 nM.
With `Cc1c(-c2ccc(C#N)cc2)nnc(N2CCC(N(C)C(=O)c3cccnc3C(F)(F)F)CC2)c1C` [Example 14, N-(1-(6-(4-Cyanophenyl)-4,5-dimethylpyridazin-3-yl)piperidin-4-yl)-N-methyl-2-(trifluoromethyl)nicotinamide dihydrochloride], the IC50 is roughly 1.27 nM.
